System: PBMC from cirrhotic patients and healthy donors
Experiment: Western blot of LC3-II lipidation in PBMC
Assay type: cell-based, human
Details: 30 μM chloroquine diphosphate, data not shown
Method: Peripheral blood mononuclear cells (PBMC) and monocyte isolation. PBMC were prepared from the blood of cirrhotic patients and healthy donors, using Ficoll density gradient centrifugation (Ficoll Paque™-plus, GE Healthcare, 17-1440-02), as previously described^43.
Cell treatment. Human monocytes, THP1-XBlue™-CD14 (Invivogen, Catalog #thpx-cd14sp) and THP1-FcγRIIA+−CD14+(kindly provided by Novimmune) monocytes were used. When indicated cells were exposed to either 30 μM chloroquine diphosphate (Sigma, C6628), 10 mM 3-Methyladenine (3-MA, Sigma, M9281-100 mg), 10 mM Diphenyleneiodonium chloride (DPI, Sigma, D2926-10 mg), or 10 mg/ml IVIg (Privigen, 100 mg/ml) for 4 hrs at 37° C., as indicated. We also used commercially synthetized Tat-conjugated peptides (30 μM, GeneCust, Dudelange): i) the Tat-p22phox N8 peptide corresponding to eight N-terminal amino acids (3-10) of p22phox that blocks the Rubicon-p22phox interaction^19; ii) its control mutant Tat-N8W9A peptide, in which one tryptophan residue is replaced by Alanine^19). In some experiments, cells were exposed to the preformed complex (10 μg/ml of mouse anti-hFcγRII mAb (clone AT-10, Santa Cruz, sc-13527) F(ab′)2 fragments+20 μg/ml goat anti-mouse anti-kappa F(ab′)2 fragments (Southern Biotech, 1052-01) or to 100 μg/ml of anti-hFcγRIIA mAb F(ab′)2 fragments (clone IV.3), purified as we previously described^26. […]

CCN(CC)CCCC(C)Nc1ccnc2cc(Cl)ccc12 (centres unmarked) [chloroquine, chloroquine diphosphate]
LC3-II lipidation (PBMC from cirrhotic patients): further enhanced | LC3-II lipidation (cells from healthy donors): affected more marginally

From US20220081481A1, “USE OF AGENTS CAPABLE OF INDUCING LC3-ASSOCIATED PHAGOCYTOSIS FOR TREATING SUSTAINED INFLAMMATION IN PATIENTS SUFFERING FROM CHRONIC LIVER DISEASE” (INSERM (INSTITUT NATIONAL DE LA SANTÉ ET DE LA RECHERCHE …, priority 2019, published 2022)
